Data taken from patent US20080311126A1, “Antisense Oligonucleotides Directed to Ribonucleotide Reducatase R2 and Uses Thereof in Combination Therapies for the Treatment of Cancer” (Genesense Technologies, Inc, priority 2004, published 2008).
“Also recorded” adds a separate entry of the source.

Assays:
[1] = system: SK-OV-3 human ovary adenocarcinoma cells; assay: SK-OV-3 ovary tumour xenograft in CD-1 nude mice; format: in vivo
Method: SK-OV-3 human ovary adenocarcinoma cells (1×10^7 cells in 100 μl of PBS) were subcutaneously injected into the right flank of 6-7 weeks old female CD-1 nude mice. After the size of tumour reached an approximate volume of 100 mm^3, 6 days post tumour cell injection, SEQ ID NO:1 was administered by bolus infusion into the tail vein every other day at 10 mg/kg 17 times. Control animals received saline alone for the same period. Antitumour effect of SEQ ID NO: 1 was further compared to that of taxol or cisplatin alone or in combination. Taxol was administered intravenously once a week for first three weeks and intraperitoneally once a week for next two weeks at a dose of 10 mg/kg. Cisplatin was administered intravenously once a week for first three weeks and intraperitoneally once a week for next two weeks at a dose of 4 mg/kg. All treatments were stopped at day 40. Antitumour activities were estimated by the inhibition of tumour volume, which was measured with caliper. Each point represents mean tumour volume calculated from 9 animals per experimental group.

[2] = Phase I single agent study of SEQ ID NO:1 in patients with solid tumours or melanoma; format: in vivo, human
[3] = system: Human Ovary Adenocarcinoma; assay: Tumour growth assay, human ovary adenocarcinoma in Balb/c Nu-Nu mice; format: in vivo
Burkitt's Lymphoma = assay: Survival assay, Burkitt's lymphoma in mice; format: in vivo, human
Method: For the study of the effect of the compositions on leukaemias, the animals are grafted with a particular number of cells, and the anti-tumour activity is determined by the increase in the survival time of the treated mice relative to the controls.

[4] = system: T-47D breast ductal carcinoma; assay: Relative colony forming efficiency (Example 17, Table 13); format: cell-based, human; details: averages of 2-8 determinations
Procedure, shortened: (§1)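 Phosphorothioate antisense oligonucleotides were delivered to tumour cell cultures with 2.5 μg DOTMA/DOPE (Lipofectin) over four hours, at 0.2 μM unless otherwise indicated. Surviving colonies were stained with methylene blue and scored. Values are % inhibition of colony formation relative to lipofectin-only controls.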

[5] = system: MDA-MB-231 breast cell adenocarcinoma; assay: as above; format: cell-based, human; details: averages of 2-8 determinations
Procedure, shortened: as §1

[6] = system: T24 bladder cell carcinoma; assay: as above; format: cell-based, human; details: averages of 2-8 determinations
Procedure, shortened: as §1

[7] = system: HepG2 hepatocellular carcinoma; assay: as above; format: cell-based, human; details: averages of 2-8 determinations
Procedure, shortened: as §1

[8] = system: PC-3 prostrate cell adenocarcinoma; assay: as above; format: cell-based, human; details: averages of 2-8 determinations
Procedure, shortened: as §1

[9] = system: MDA PaCa-2 pancreatic cell carcinoma; assay: as above; format: cell-based, human; details: MIA PaCa-2 pancreatic cell carcinoma; averages of 2-8 determinations
Procedure, shortened: as §1

A549 lung cell carcinoma = assay: as above; format: cell-based, human; details: averages of 2-8 determinations
Procedure, shortened: as §1

[10] = system: HCT116 colon cell carcinoma; assay: as above; format: cell-based, human; details: averages of 2-8 determinations
Procedure, shortened: as §1

Human Melanoma = assay: Tumour growth assay, human melanoma in mice; format: in vivo
[11] = system: Human Glioblastoma-Astrocytoma; assay: Tumour growth assay, human glioblastoma-astrocytoma in mice; format: in vivo
Mouse Fibrosarcoma = assay: Tumour growth assay, mouse fibrosarcoma in C3H mice; format: in vivo
[12] = system: BxPC-3 human pancreatic carcinoma cells; assay: BxPC-3 gemcitabine resistant pancreatic carcinoma xenograft in CD-1 nude mice; format: in vivo
Method: BxPC-3 human pancreatic carcinoma cells (3×10^6 cells in 100 μl of PBS) were subcutaneously injected into the right flank of 6-7 weeks old female CD-1 nude mice. BxPC-3 is a gemcitabine resistant call line. After the size of tumour reached an approximate volume of 100 mm^3, 21 days post tumour cell injection, SEQ ID NO:1 was administered by bolus infusion into the tail vein every other day at 10 mg/kg 17 times. Control animals received saline alone for the same period. Antitumour effect of SEQ ID NO:1 was further compared to that of Gemcitabine. Gemcitabine was administered intravenously every three days at a dose of 100 mg/kg. Antitumour activities were estimated by the inhibition of tumour volume, which was measured with caliper. Each point represents mean tumour volume calculated from 10 animals per experimental group. […] As expected, treatment with Gemcitabine during the same period was ineffective against Gemcitabine-resistant tumour (FIGS. 19A & B).

[13] = system: A2058 human melanoma cells; assay: A2058 melanoma xenograft in CD-1 nude mice; format: in vivo
Method: A2058 human melanoma cells 1×10^7 cells in 100 μl of PBS) were subcutaneously injected into the right flank of 6-7 week old female CD-1 nude mice. A2058 is a metastatic melanoma cell line. After the size of tumour reached an approximate volume of 100 mm^3, 6 days post tumour cell injection, SEQ ID NO:1 was administered by bolus infusion into the tail vein every other day at 10 mg/kg. Control animals received saline alone for the same period. Antitumour effect of SEQ ID NO:1 was further compared to that of dacarbazine (DTIC) alone or that of SEQ ID NO:1 in combination with DTIC. DTIC was administered intravenously for 5 days in a row from day 6-10 at a dose of 80 mg/kg in 100 μl saline. All treatments were stopped at day 24. A day after the last treatment, tumours were excised from the animals and their weights were measured.

Sequence: GGCTAAATCGCTCCACCAAG (chemistry not given here) [SEQ ID NO: 1, antisense oligonucleotide that hybridizes to the coding region of human ribonucleotide reductase R2 mRNA]
- antitumour effect (tumour volume) ([1]; SEQ ID NO:1 10 mg/kg 17 times, taxol 10 mg/kg, cisplatin 4 mg/kg once a week): significant delay of tumour growth
- tumour volume data as percentage of saline control ([1]; SK-OV-3 (ovary), Mouse CD-1): 42%
- dose with no evidence of toxicity ([2]; human subjects): 148.0 mg/m^2/day
- maximum tolerated dose (MTD) ([2]; patients with solid tumours or melanoma): 222.0 mg/m^2/day
- Inhibition of tumour size ([3]; Balb/c Nu-Nu mice, Days 19 to 25 after tumour implantation): approximately 35% in Balb/c Nu-Nu
- Inhibition of tumour weight ([3]; Human Ovary Adenocarcinoma): of approximately 50%
- effect of treatment on survival (Burkitt's Lymphoma; first entry): Treatment prolonged survival
- survival of treated mice (Burkitt's Lymphoma; first entry, untreated died by day 23, one treated mouse died at day 69): Treated mice survived beyond day 73
- effect of treatment on survival (Burkitt's Lymphoma; second entry): Treatment prolonged survival
- survival of all treated mice (end of the experimental period) (Burkitt's Lymphoma; second entry, untreated died by day 20): the experimental period (140 days)
- Reduced relative colony forming efficiency, T-47D (% inhibition of colony forming ability) [4]: 66.12%
- Reduced relative colony forming efficiency, MDA-MB-231 (% inhibition of colony forming ability) [5]: 90.21%
- Reduced relative colony forming efficiency, T24 (% inhibition of colony forming ability) [6]: 76.79%
- Reduced relative colony forming efficiency, HepG2 (% inhibition of colony forming ability) [7]: 75.89%
- Reduced relative colony forming efficiency, PC-3 (% inhibition of colony forming ability) [8]: 83.23%
- Reduced relative colony forming efficiency, MIA PaCa-2 (% inhibition of colony forming ability) [9]: 75.62%
- Reduced relative colony forming efficiency, A549 (% inhibition of colony forming ability) (A549 lung cell carcinoma): 95.14%
- Reduced relative colony forming efficiency, HCT116 (% inhibition of colony forming ability) [10]: 70.46%
- Inhibition of tumour weight (Human Melanoma): approximately 80%
- Inhibition of tumour weight [11]: approximately 65%
- Inhibition of tumour volume (Mouse Fibrosarcoma; C3H mice, Day 15 after tumour implantation): mice by approximately 80% on Day 15
- dose dependence of decrease in tumour weight (Mouse Fibrosarcoma; C3H mice, doses of 0.5 to 30 mg/kg): Dose-dependent decrease in tumour
- Inhibition of tumour weight (Mouse Fibrosarcoma; Mouse Fibrosarcoma): approximately 80%
- Tumour weight as % of saline control ([12]; BxPC-3 (pancreatic), Gemcitabine resistance, CD-1): 5.8%
- antitumour effect (tumour volume) ([12]; SEQ ID NO:1 10 mg/kg 17 times i.v., Gemcitabine 100 mg/kg i.v. every three days): significant delay of tumour growth
- Tumour weight as % of saline control ([13]; A2058 (melanoma), Mouse CD-1): 20%
- antitumour effect (tumour weight) ([13]; SEQ ID NO:1 10 mg/kg every other day i.v., DTIC 80 mg/kg i.v. 5 days): significant delay of tumour growth; also recorded: superior to the inhibitory effects observed with DTIC alone
